These results are taken from PMC9919437 (Molecules, 2023).

One series in a line: Water solubility. In kind it is physicochemical. The following applies: fully soluble at least up to.
The next series addresses BC2L-C-Nt. On the set-up: method as in PMID 36174276. Particulars: SPR, BC2L-C-Nt immobilized on CM5 chip; said not to correlate with ITC; read-out: apparent Kd; cited from earlier work. In general terms: Surface plasmon resonance follows binding to a sensor surface in real time, without labels.
Details of series [1]: method as in PMID 36174276. Particulars: cited from earlier work.
Series [2] concerns the molecule itself. Put plainly: crystal structure; hexagonal crystal form (P6_3), one protomer in the asymmetric unit, trimer by the 3-fold crystallographic symmetry; cocrystals with H-type 1 oligosaccharide soaked with 3 mM compound 3 in 2.47 M sodium malonate pH 7.0 for 48 h at 19 °C.

What is called solubility is how much of the substance goes into solution per volume. Usually stoichiometry N stands for the number of molecules, sites or subunits per partner or assembly.

Entries after “also recorded” stand apart in the source; their conditions may differ.

As to `NCc1cccc(-c2ccc(C(=O)NC3OC(CO)C(O)C(O)C3O)o2)c1` (stereo not drawn) [compound 4], the solubility in “Water solubility” is no less than 2000 µM.

The molecule `C[C@@H]1O[C@H](NC(=O)c2ccc(-c3cccc(CN)c3)o2)[C@@H](O)[C@H](O)[C@@H]1O` [compound 3] registered a solubility in the series “Water solubility” of no less than 2000 µM.

The molecule `C[C@@H]1O[C@H](NC(=O)c2ccco2)[C@@H](O)[C@H](O)[C@@H]1O` [compound 17, Furan-2-carboxamido-β-L-fucopyranose] yielded a solubility in “Water solubility” of no less than 2000 µM.

Turning to `C[C@@H]1O[C@H](NC(=O)c2ccc(-c3cccc(N)c3)o2)[C@@H](O)[C@H](O)[C@@H]1O` [compound 2], the Kd at BC2L-C-Nt was 2400 µM. Moreover, the “water solubility (in words)” value in series [1] is “very low water solubility; also recorded: water-insoluble”.

B1: N-terminal domain of the lectin BC2L-C from Burkholderia cenocepacia (domain or fragment)
chain: MPLLSASIVSAPVVTSETYVDIPGLYLDVAKAGIRDGKLQVILNVPTPYATGNNFPGIYFAIATNQGVVADGCFTYSSKVPESTGRMPFTLVATIDVGSGVTFVKGQWKSVRGSAMHIDSYASLSAIWGTAA
notes: also called BC2L-C-Nt; BC2L-C N-terminal domain; not shown: expression tag, N-terminal, cleaved
On to B1, for which the “stoichiometry N” value in series [2] worked out at 3.
